Where two headings read alike, the source gives them in different places.
Tests used:
[1] = biological target: Agaricus bisporus tyrosinase (AbTYR); test: AbTYR inhibition assay; format: biochemical
From the text: (§1) No. T3824). Kojic acid was employed as a positive standard. The intramelanosomal domain of hTYR was expressed and purified as previously reported in the literature.[46] The reference compound Thiamidol was purchased from BLDpharm (Shanghai, China).

[2] = biological target: T1, human tyrosinase (hTYR) (Homo sapiens, UniProt P14679); test: hTYR inhibition assay; format: biochemical
T1 construct: The intramelanosomal domain of hTYR was expressed and purified; made in house
T1 sequence (P14679 19-476 limits assumed): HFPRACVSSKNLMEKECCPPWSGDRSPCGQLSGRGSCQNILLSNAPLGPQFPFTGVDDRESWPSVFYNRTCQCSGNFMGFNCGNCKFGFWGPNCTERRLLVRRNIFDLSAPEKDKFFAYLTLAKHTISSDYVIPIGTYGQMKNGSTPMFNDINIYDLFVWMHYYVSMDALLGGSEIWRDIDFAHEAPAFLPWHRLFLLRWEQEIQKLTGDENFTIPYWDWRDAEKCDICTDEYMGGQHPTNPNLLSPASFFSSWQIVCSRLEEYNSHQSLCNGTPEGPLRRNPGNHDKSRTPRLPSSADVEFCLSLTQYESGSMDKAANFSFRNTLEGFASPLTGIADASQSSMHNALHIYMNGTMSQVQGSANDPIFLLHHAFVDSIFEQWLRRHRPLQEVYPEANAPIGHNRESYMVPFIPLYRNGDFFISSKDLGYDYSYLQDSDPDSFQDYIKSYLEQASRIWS
From the text: as §1

[3] = ABTS radical scavenging assay; details: read-out: Antioxidant activity EC50 (ABTS)
Procedure: Therefore, we conducted a preliminary assessment of the antioxidant activity of all synthesized target compounds by evaluating their ABTS radical scavenging capacity. The ABTS assay is widely recognized as one of the most reliable methods for measuring antioxidants' ability to neutralize the stable ABTS˙^+ radical cation.
The overall free radical-scavenging capacity of the compounds was evaluated using the ABTS [2,20-azinobis-(3-ethylbenzothiazoline-6-sulfonic acid)] assay according to previously described methods.[45] The method relies on the capacity of antioxidants to scavenge the ABTS˙^+ radical. To generate ABTS˙^+, a 7 mM ABTS solution was mixed with 2.45 mM potassium persulfate in water, and the mixture was incubated in the dark at room temperature for 24 h. Subsequently, 10 μL of sample at varying concentrations was added to 990 μL of the diluted ABTS˙^+ solution. After 1 min of reaction at room temperature, the absorbance was recorded at 734 nm. The reference antioxidant used was 6-hydroxy-2,5,7,8-tetramethylchromane-2-carboxylic acid (Trolox). Antioxidant activity was quantified as EC50, which represents the concentration of compound needed to reduce the initial absorbance by 50%.

[4] = MTT cell viability; format: cell-based; details: human, HaCaT keratinocyte cells
Procedure: Based on the inhibitory effects on hTYR and antioxidant properties on the ABTS assay, we focused our attention on compounds 2 and 3, which were further characterized as skin protective agents. In more detail, we evaluated their ability to influence the viability of human skin keratinocyte cell line HaCaT at distinct concentrations ranging from 5 to 50 μM (Fig. 6). […] Cell viability remained above 87% in compound 2 for all concentrations tested.
The 3-(4,5-dimethylthiazol-2-yl)-2,5-diphenyltetrazolium bromide (MTT) technique on human skin keratinocyte cell line (HaCaT; CLS-Cell Lines Service, Eppelheim, Germany) was employed to assess cell viability as reported by Pintus et al.[47] The cells were exposed to the compounds at concentrations ranging from […] for a duration of 24 h. Afterward, MTT reagent was added to each well, followed by incubation at 37 °C for 3 h. Following incubation, the MTT solution was removed from the culture plate, and 100 μL of DMSO solvent was added to dissolve the water-insoluble formazan crystals formed in the cells. The absorbance was then measured at 570 nm using a microplate reader (VANTAstar_BMG LABTECH GmbH, Offenburg, Germany).

[5] = tested on: HaCaT cells; test: Intracellular ROS levels (DCFH-DA), H2O2-induced; format: cell-based, human; details: 5–50 μM, 2 mM H2O2
Procedure: To further confirm their antioxidant capacity, we carried out an antioxidant assay in the skin keratinocyte cell line HaCaT. The levels of ROS were measured before and after exposure to H2O2-induced oxidative stress and after treatment with compounds 2 and 3 at various concentrations (5–50 μM).
Cellular ROS levels were measured using the 2′,7′-dichlorofluorescein diacetate (DCFH-DA) method.[48] HaCat cells were exposed to different concentrations of the test compounds, and after 24 h, cells were incubated with DCFH-DA (10 μM) at 37 °C for 30 min and then treated with 2 mM H2O2. The fluorescence intensity of DCF was immediately measured with a fluorescence plate reader (VANTAstar_BMGLABTECH GmbH, Offenburg, Germany).

[6] = Relative lipophilicity by RP-TLC; format: physicochemical; details: RP-TLC C18, acetone:water 2:1
Procedure: Based on the consideration that the lipophilicity of an active molecule exerts a relevant role in skin penetration as well as in the process of crossing the cell membrane, we chose to experimentally estimate the relative lipophilicity of the synthesized compounds 1–5. We employed reverse-phase thin layer chromatography (RP-TLC); the retardation coefficients (RFs) were measured from the chromatograms, thus generating the RM values as an estimation of the relative lipophilicity among the homogenous series of the studied compounds 1–5 in comparison with MehT-3. The Experimental procedure (4.3 Lipophilicity) contains a detailed description of the applied methods.
Experimental relative lipophilicity was determined by employing reversed phase TLC on 20 cm × 20 cm plates coated with C18 silica. The eluant was prepared by mixing acetone and water (2 : 1 (v/v)). The studied compounds and reference substances were dissolved in MeOH to obtain the working solution with a concentration of 2.0 mg mL^−1. Then, we activated the plates by heating at 105 °C for 1 h. From each working solution, a volume of 0.2 μL was spotted to the plates. The measurements were repeated three times with distinct disposition of the compounds on the plate, so that RF values represented the mean values obtained in triplicate. The chromatograms were developed at a distance of 10 cm from the origin in ascending TLC chambers at room temperature. Then, the spots of the substances were visualized by means of a UV lamp at 254 nm. Based on the retardation coefficients (RF) we calculated the relative lipophilicity RM values according to the formula RM = log[(1/RF) − 1];[44] higher RM values predict a higher lipophilicity.

[7] = parameters: method as in PMID 36675192; details: positive control; read-out: Antioxidant activity EC50 (ABTS); cited from earlier work
[8] = tested on: Agaricus bisporus tyrosinase (AbTYR); parameters: method as in PMID 37657271, PMID 36093940; details: cited from earlier work
[9] = biological target: T1, human tyrosinase (hTYR); details: cited from earlier work

Structure (SMILES)	IC50 [1]	IC50 [2]	EC50 [3]	RM (relative lipophilicity) [6]	other results
O=C(c1ccc(=O)[nH]c1)N1CCN(c2ccc(O)cc2)CC1 [Compound 2, 5-[4-(4-hydroxyphenyl)piperazine-1-carbonyl]pyridin-2(1H)-one]	13.2 ± 2.24 µM	7.8 ± 0.8 µM	9.5 ± 0.2 µM	−0.60	viability at 24 h ([4]; all concentrations tested (5 to 50 μM)): > 87%; H2O2-induced ROS production [5]: decreased the production of ROS induced by hydrogen peroxide in a dose-dependent manner
CC(=O)N1CCN(c2ccc(O)cc2)CC1 [Compound 3, 1-[4-(4-hydroxyphenyl)piperazin-1-yl]ethan-1-one]	31.8 ± 3.37 µM	5.3 ± 0.9 µM	14 ± 0.9 µM	–	viability at 24 h, 50 µM ([4]; 50 μM): 75%; H2O2-induced ROS production [5]: decreased the production of ROS induced by hydrogen peroxide in a dose-dependent manner
O=C(O)c1ccccc1C(=O)N1CCN(c2ccc(O)cc2)CC1 [Compound 1, 2-[4-(4-hydroxyphenyl)piperazine-1-carbonyl]benzoic acid]	40.7 ± 3.19 µM	15.4 ± 1.2 µM	17.1 ± 0.7 µM	–	–
Cc1c(C)c2c(c(C)c1O)CCC(C)(C(=O)O)O2 (centres unmarked) [Trolox, 6-hydroxy-2,5,7,8-tetramethylchromane-2-carboxylic acid]	–	–	–	–	EC50 [7]: 13 ± 1.1 µM
CCC(=O)N1CCN(c2ccc(O)cc2)CC1 [Compound 4, 1-[4-(4-hydroxyphenyl)piperazin-1-yl]propan-1-one]	8.74 ± 0.36 µM	24.1 ± 3.3 µM	10.8 ± 0.3 µM	–	–
CC(=O)NCC(=O)N1CCN(c2ccc(O)cc2)CC1 [Compound 5, N-[2-[4-(4-hydroxyphenyl)piperazin-1-yl]-2-oxoethyl]acetamide]	4 ± 0.25 µM	27.2 ± 6.2 µM	10.4 ± 0.1 µM	−0.65	–
COc1ccccc1C(=O)N1CCN(c2ccc(O)cc2)CC1 [MehT-3, [4-(4-hydroxyphenyl)piperazin-1-yl](2-methoxyphenyl)methanone]	–	–	–	−0.17	Mode of inhibition of AbTYR (kinetic analyses) [8]: competitive inhibitor; IC50 ([8]; reference compound): 3.52 ± 0.25 µM; Mode of inhibition of hTYR (kinetic analyses) [9]: competitive inhibitor

— article PMC12183826, “Structure-based design and evaluation of tyrosinase inhibitors targeting both human and mushroom isozymes” (RSC Medicinal Chemistry, 2025)
